Experimental data as given in patent US10456414B2, “Methods for treating HCV” (priority 2011, dated 2019).
Values joined by “and” are separate entries in the source; they are usually repeats but may differ in a detail not shown here. Identical values can stand only once. Like-named read-outs stand apart in the source and are kept apart here. Marks after values point to notes of the source that are not given here.

Tests used:
[1] = tested on: HCV genotype 1a replicon; assay: Antiviral combination studies with Compound 4, MacSynergy II; details: for Antagonism Volume / Synergy Volume: in combination with Compound 4, mean ± standard deviation; for Interaction: in combination with Compound 4
[2] = tested on: Huh-7 cells carrying a HCV genotype 1a replicon; assay: Cytotoxicity combination studies with Compound 4, MacSynergy II; details: for Antagonism Volume (cytotoxicity) / Synergy Volume (cytotoxicity): in combination with Compound 4, mean ± standard deviation
[3] = tested on: 1b Huh-luc replicon cells; assay: Antiviral combination studies with Compound 5, MacSynergy II; assay type: cell-based, HCV; details: for Antagonism Volume / Synergy Volume: in combination with Compound 5, mean ± standard deviation; for Interaction: in combination with Compound 5
Protocol: Combination data were analyzed based on the Bliss Independence model using MacSynergy II software. Results of the combination assays were expressed as mean synergy and antagonism volumes (nM^2) calculated at 95% confidence from two independent experiments performed in triplicate.

[4] = tested on: genotype 1b replicon RNA; assay: Replicon RNA suppression, 6 day assay, QRT-PCR
[5] = Drug-drug interactions of co-administered compounds (exposure); assay type: in vivo
Protocol: With respect to Compounds 9 and 10, or pharmaceutically acceptable salts thereof, the composition may comprise 10 mg to 1000 mg per day (according to US 2010/0298257). With respect to Compound 11, or pharmaceutically acceptable salts thereof, the composition may comprise 1 mg to 1000 mg per day (according to US 2010/0081628).

[6] = tested on: HCV genotype 1a replicon; assay: HCV genotype 1a replicon assay, EC50 (Biological Example 3); assay type: cell-based; details: 3 days
[7] = HCV genotype 1a replicon assay, CC50 by calcein AM (Biological Example 8); details: human, Huh-7 cells carrying an HCV genotype 1a replicon
[8] = tested on: Genotype 1 b replicon cells; assay: Compound combination replicon cure assay, colony formation; details: 6 days treatment at the same concentrations, then G418 for 14 days
[9] = tested on: Huh-7 cells carrying a HCV genotype 1a replicon; assay: HCV genotype 1a replicon assay, CC50 by calcein AM (Biological Example 3); assay type: cell-based; details: genotype 1a replicon cells, 3 days
Protocol: The CC50 assay was performed first.

[10] = tested on: HCV 1b replicon system (Huh-luc); assay: Antiviral combination studies with Compound 6, MacSynergy II; details: for Antagonism Volume / Synergy Volume: in combination with Compound 6, mean ± standard deviation; for Interaction: in combination with Compound 6
[11] = tested on: Huh-7 cells carrying an HCV genotype 1a replicon
[12] = tested on: HCV genotype 1a replicon; assay: HCV genotype 1a replicon assay, EC50 (Biological Example 8); details: Hepatitis C virus, 72 h
[13] = tested on: HCV genotype 1a replicon; assay: Antiviral combination studies with Compound 10, MacSynergy II; details: in combination with Compound 10
[14] = tested on: GT3a NS5B S282T mutant chimeric replicon; assay: microbe, parasite or virus in culture; assay type: cell-based, HCV; details: Hepatitis C virus, GT3A, 72 h, read-out: EC50 S282T
[15] = tested on: GT2a wild-type replicon; assay: microbe, parasite or virus in culture; assay type: cell-based, HCV; details: Hepatitis C virus, 72 h, 3 days
[16] = tested on: GT2b NS5B S282T mutant chimeric replicon; assay: microbe, parasite or virus in culture; assay type: cell-based, HCV; details: Hepatitis C virus, GT2B, 72 h, read-out: EC50 S282T
[17] = tested on: GT3a wild-type chimeric replicon (3a NS5B in GT1b backbone); assay: microbe, parasite or virus in culture; assay type: cell-based, HCV; details: Hepatitis C virus, 72 h, read-out: EC50 WT
[18] = tested on: GT1b NS5B S282T mutant replicon; assay: microbe, parasite or virus in culture; assay type: cell-based, HCV; details: Hepatitis C virus, GT1B, 72 h, read-out: EC50 S282T
[19] = tested on: GT2a NS5B S282T mutant replicon; assay: microbe, parasite or virus in culture; assay type: cell-based, HCV; details: Hepatitis C virus, GT2A, 72 h, read-out: EC50 S282T
[20] = tested on: GT2b wild-type chimeric replicon (2b NS5B in GT1b backbone); assay: microbe, parasite or virus in culture; assay type: cell-based, HCV; details: Hepatitis C virus, 72 h, read-out: EC50 WT
[21] = tested on: GT4a NS5B S282T mutant chimeric replicon; assay: microbe, parasite or virus in culture; assay type: cell-based, HCV; details: Hepatitis C virus, GT4A, 72 h, read-out: EC50 S282T
[22] = tested on: GT1b wild-type replicon; assay: microbe, parasite or virus in culture; assay type: cell-based, HCV; details: Hepatitis C virus, 72 h, 3 days
[23] = human, dose of 800 mg/day; cited from earlier work
[24] = tested on: GT4a wild-type chimeric replicon (4a NS5B in GT1b backbone); assay: microbe, parasite or virus in culture; assay type: cell-based, HCV; details: Hepatitis C virus, 72 h, read-out: EC50 WT
[25] = single compound at the listed concentration, 6 days, relative to DMSO control (Table XIV)
[26] = Hepatitis C virus, 72 h, average ± standard deviation, read-out: EC50

## Fc1ccccc1-c1nc2ccn(Cc3ccc(-c4ccc(C(F)(F)F)cc4C(F)(F)F)nn3)cc-2n1 [Compound 1, 5-((6-(2,4-bis(trifluoromethyl)phenyl)pyridazin-3-yl)methyl)-2-(2-fluorophenyl)-5H-imidazo[4,5-c]pyridine]
[1]
  Antagonism Volume: −1 ± 2 nM^2%
  Synergy Volume: 34 ± 26 nM^2%
[2]; in combination with Compound 4
  Interaction (cytotoxicity): Additivity (Additivity: ≤25 and >−25 nM^2%)
[2]
  Antagonism Volume (cytotoxicity): 0 ± 1 nM^2%
  Synergy Volume (cytotoxicity): 13 ± 11 nM^2%
[3]
  Antagonism Volume: 0 ± 0 nM^2
  Synergy Volume: 70 ± 26 nM^2
[4]
  Replicon RNA log drop: −1.0 log
[4]; [25]
  Replicon RNA log drop: −1.0 log
[5]; co-administered with Compound 2
  increase of exposure of Compound 1 by Compound 2: 2-3 ×
[5]; in vivo
  effect on drug metabolizing systems: does not appear that Compound 1 affects drug metabolizing systems
[6]; [26]
  EC50: 19 ± 8 nM
[7]
  CC50 at 3 days: > 44400 nM
[8]
  Uncured colony number: 657
[9]; read-out: CC50
  CC50: > 44400 nM
[10]
  Antagonism Volume: −17 ± 0.7 nM^2
  Synergy Volume: 34 nM^2 and 34 ± 9.9 nM^2

## COc1ccc2c(O[C@@H]3C[C@H]4C(=O)N[C@]5(P(=O)(O)Cc6c(F)cccc6F)C[C@H]5CCCCCCC[C@H](NC(=O)OC5CCCC5)C(=O)N4C3)cc(-c3csc(NC(C)C)n3)nc2c1Cl [Compound 2, (2R,6S,13aR,14aS,16aS)-2-(8-chloro-2-(2-(isopropylamino)thiazol-4-yl)-7-methoxyquinolin-4-yloxy)-6-(cyclopentyloxycarbonylamino)-5,16-dioxooctadecahydrocyclopropa[e]pyrrolo[1,2-a][1,4]diazacyclopentadecin-14a-yl(2,6-diflurobenzyl)phosphinic acid]
[1]
  Interaction: Additivity (Additivity: ≤25 and >−25 nM^2%)
  Antagonism Volume: −2 ± 3 nM^2%
  Synergy Volume: 22 ± 14 nM^2%
[2]; in combination with Compound 4
  Interaction (cytotoxicity): Additivity (Additivity: ≤25 and >−25 nM^2%)
[2]
  Antagonism Volume (cytotoxicity): 0 ± 0 nM^2%
  Synergy Volume (cytotoxicity): 17 ± 14 nM^2%
[3]
  Interaction: Additive
  Antagonism Volume: −7 ± 7 nM^2
  Synergy Volume: 22 ± 12 nM^2
[6]; [26]
  EC50: 496 ± 135 nM
[9]; read-out: CC50
  CC50: > 22200 nM
[10]
  Interaction: Moderate Synergy
  Antagonism Volume: −0.7 ± 0.7 nM^2
  Synergy Volume: 52 nM^2 and 52 ± 5.1 nM^2

## CC(C)OC(=O)[C@H](C)N[P@](=O)(OC[C@H]1O[C@@](C#N)(c2ccc3c(N)ncnn23)[C@](C)(O)[C@@H]1OC(=O)C(C)C)Oc1ccccc1 [Compound 4]
[2]; in combination with Ribavirin (Table IX)
  Interaction (cytotoxicity): Additivity (Additivity: ≤25 and >−25 nM^2%)
[3]
  Antagonism Volume: −1 ± 3 nM^2
  Synergy Volume: 26 ± 28 nM^2
[4]; genotype 1b replicon cells, 6 days
  Compound concentration able to induce replicon RNA 1-1.5 log drop in a 6 day assay: 1000 nM
[4]; [25]
  Replicon RNA log drop: −1.2 log
[6]; [26]
  EC50: 201 ± 74 nM
[8]
  Uncured colony number: 1054

## CC1=CC[C@H](C(=O)N(c2cc(C#CC(C)(C)C)sc2C(=O)O)[C@H]2CC[C@](O)(CO[C@H]3CCOC3)CC2)CC1 [Compound 5, 5-(3,3-dimethylbut-1-yn-1-yl)-3-[(cis-4-hydroxy-4-{[(3S)-tetrahydrofuran-3-yloxy]methyl}cyclohexyl){[(1R)-4-methylcyclohex-3-en-1-yl]carbonyl}amino]thiophene-2-carboxylic acid]
[1]
  Antagonism Volume: −1 ± 3 nM^2%
  Synergy Volume: 26 ± 28 nM^2%
[2]; in combination with Compound 4
  Interaction (cytotoxicity): Additivity (Additivity: ≤25 and >−25 nM^2%)
[2]
  Antagonism Volume (cytotoxicity): −10 ± 7 nM^2%
  Synergy Volume (cytotoxicity): 15 ± 8 nM^2%
[6]; [26]
  EC50: 15 ± 2.4 nM
[11]; with 320 nM Compound 10 and the highest concentration of the listed compound
  Cytotoxicity at Highest Concentration of Compound Combinations (% inhibition on cell growth): 4.3 ± 2.9%
[7]
  CC50 at 3 days: > 44400 nM
[9]; read-out: CC50
  CC50: > 44400 nM
[12]
  EC50: 14 nM
[13]
  Interaction: Additive

## CC(C)C(=O)OCC1O[C@@H](n2ccc(N)nc2=O)[C@](C)(F)[C@@H]1OC(=O)C(C)C (stereo partly shown) [Compound 7]
[10]
  Interaction: Moderate Synergy
  Antagonism Volume: −0.2 ± 0.1 nM^2
  Synergy Volume: 51 nM^2 and 51 ± 7.8 nM^2

## NC(=O)c1ncn([C@@H]2O[C@H](CO)[C@@H](O)[C@H]2O)n1 [Ribavirin, 1-β-D-ribofuranosyl-1H-1,2,4-Triazole-3-carboxamide, reference compound]
[1]
  Antagonism Volume: −43 nM^2% and −43 ± 20 nM^2%
  Synergy Volume: 1 ± 1 nM^2%
[14]
  EC50: 1 nM
[3]
  Interaction: Additive
  Antagonism Volume: −12 ± 9 nM^2
  Synergy Volume: 12 ± 8 nM^2
[15]
  EC50: 8.3 nM
[16]
  EC50: 0.6 nM
[6]; [26]
  EC50: 36500 ± 17500 nM
[17]
  EC50: 6.7 nM
[11]; combined with Compound 10, highest combined concentrations tested
  cell viability: greater than 85%
[18]
  EC50: 1.6 nM
[7]
  CC50 at 3 days: > 88800 nM
[19]
  EC50: 0.6 nM
[20]
  EC50: 2.6 nM
[21]
  EC50: 0.6 nM
[9]; read-out: CC50
  CC50: > 88800 nM
[12]
  EC50: 33600 nM
[22]
  EC50: 6.6 nM
[13]
  Interaction: Minor
[10]
  Interaction: Moderate Synergy
  Antagonism Volume: −0.5 ± 0.1 nM^2
  Synergy Volume: 61 nM^2 and 61 ± 0.5 nM^2
[23]
  steady-state plasma concentration: 6 to 11 µM
[24]
  EC50: 6.2 nM

## IFN-α
[1]
  Interaction: Additivity (Additivity: ≤25 and >−25 nM^2%)
  Antagonism Volume: 0 ± 0 nM^2%
  Synergy Volume: 12 ± 6 nM^2%
[2]; in combination with Compound 4
  Interaction (cytotoxicity): Additivity (Additivity: ≤25 and >−25 nM^2%)
[2]
  Antagonism Volume (cytotoxicity): −7 ± 13 nM^2%
  Synergy Volume (cytotoxicity): 8 ± 12 nM^2%
[6]; IFN-α in Units per milliliter
  EC50: 1.4 ± 0.3^b U/mL
[9]; IFN-α in Units per milliliter
  CC50: >50^b U/mL
[10]
  Interaction: Minor Synergy
  Antagonism Volume: 0.0 ± 0.0 nM^2
  Synergy Volume: 32 nM^2 and 32 ± 1.4 nM^2
